Consider 1 molecule from US8076308B2, “Inhibition of autophagy genes in cancer chemotherapy” (British Columbia Cancer Agency, priority 2005, dated 2011).

For assay [1], the system named is MCF-7 cells. As to the kind of experiment: Detection of autophagy in tamoxifen treated MCF-7 cells (MDC, LC3-GFP, TEM). Type of assay: cell-based, human. From the text: Assays for autophagy and cell viability: We used flow cytometry based methods and microscopy to analyze autophagy levels. Cells were stained with MDC and LT-G and first analyzed manually by fluorescence microscopy and then by flow cytometry using a BD® flow cytometer (FACSVANTAGE™ SE, BD, TFL FACS Facility, BCCRC). […] To confirm that these two populations represent a functional difference in autophagy levels, RNA and protein from these FACS sorted cell were subjected to QRT-PCR for the MAP1LC3b gene, a commonly accepted marker for autophagy (16). In addition, the two populations were analyzed by Transmission Electron Microscopy (TEM) for the presence of autophagosomes (9).
FIG. 8. […] B. MCF-7 cells treated with 10^-6 M tamoxifen. In panels A, B, & D, cells are stained with the autolysosomal marker, MDC, detected as punctate staining (e.g. arrows in B).
In panels C and D, autophagy is detected by LC3-GFP localization. C. Punctate GFP-LC3 in transient transfected MCF7 cells treated with TAM. […] In panel E-H, TEM analyses indicate that autolysosomes are abundant in tamoxifen treated MCF7 cell sorted MDC (+) populations but not untreated MCF7 cells. Representative image of an untreated MCF7 cell is shown in (E) with a magnified view of the same cell in (G). Panels (F) and (H) show a cell treated with 5 uM tamoxifen (72 hrs).

Assay [2] deals with MCF7 human breast carcinoma cells. Conditions: literature (9), cited from earlier work.
Assay [3] deals with FM3A murine breast tumour cells. Conditions: literature (10); cited from earlier work.

Where two headings read alike, the source gives them in different places.

In the case of `CC/C(=C(\c1ccccc1)c1ccc(OCCN(C)C)cc1)c1ccccc1` [Tamoxifen], in assay [1] (MCF7 cell treated with 5 uM tamoxifen (72 hrs), versus untreated), the “Autolysosomes by TEM” value was “Numerous autolysosomes”. Further, the “Induction of autophagy (MDC punctate staining, LC3-GFP localization)” value in assay [1] (MCF-7 cells, 10^-6 M tamoxifen) is on record as “induces autophagy”. The Induction of autophagy entry in assay [2] (listed as tamoxifen) was “undergo autophagy”; in assay [2], “induce autophagy”; in assay [3], “induce autophagy”.
